From US20160089391A1, “Molecular Targets for Cardiovascular Disease” (Temple University-of the Commonwealth System of Higher …, priority 2014, published 2016)
Residues, ends and D or L forms follow the SMILES beside them.

Tests used:
[1] = test system: mouse thoracic aorta; assay: Endothelium-dependent vascular relaxation to ACh in aortic rings treated ex vivo (multiple-wire myograph); details: for aortic endothelium-dependent vascular relaxation to ACh: aortic rings of HHcy/HG-Cbs−/+ mice preincubated with calpain inhibitor 20 μmol/L for 1 hour; for aortic endothelium-dependent vascular relaxation to ACh / endothelium-dependent vascular relaxation to ACh: p<0.05; for endothelium-dependent vascular relaxation to ACh: aortic rings of HHcy/HG-Cbs−/+ mice preincubated 1 hr with antioxidant (PEG-SOD 150 U/mL, Tempol 1 mmol/L, apocynin 10 μmol/L)
[2] = test system: calpain; details: mouse microvascular endothelial cells (Smolock et al., 2011); cited from earlier work
[3] = test system: aorta of db/db mice; details: supplementation, via the NO pathway (Seto et al., 2010); cited from earlier work
[4] = test system: eNOS-pThr495; assay: eNOS-pThr495 protein levels in HAECs; assay type: cell-based, human; details: HAECs with DL-Hcy 500 μmol/L and D-Glu 25 mmol/L 48 hrs; GFX 2 μmol/L 30 min; MDL 20 mmol/L 48 hrs; Adv-dnPKCβ2 200 MOI 72 hrs; siRNA 72 hrs
Protocol: (FIG. 7A). eNOS protein levels in mouse aorta of Cbs^−/+ mice (Left Panel) and HAECs (Right Panel). (FIG. 7B). eNOS-pThr497/495 protein levels in mouse aorta of Cbs^−/+ mice (Left Panel) and in HAECs (Right Panel). At the age of 8-week, Cbs^−/+ mice were fed with a high methionine diet (HM, methionine: 2% w/w) for 8 weeks, and/or injected with streptozotocin (STZ, i.p., 40 mg/kg) for 5 consecutive days starting from the first day of experiment. Mice fed with a control diet (CT, methionine: 0.37% w/w) and injected with vehicle (50 mmol/L citrate buffer) served as controls. Human aortic endothelial cells (HAECs, passage 8-9) were cultured in EC medium which contains 5 mmol/L D-glucose (D-Glu), treated with DL-homocysteine (DL-Hcy, 500 μmol/L) and/or D-Glu (25 mmol/L). (FIG. 7C). eNOS-pThr495 protein levels in HAECs. HAECs (passage 8-9) were cultured in EC medium which contains 5 mmol/L D-glucose (D-Glu), treated with DL-homocysteine (DL-Hcy, 500 μmol/L) and D-Glu (25 mmol/L for 48 hrs with or without non-specific PKC inhibitor GF109203X (GFX) (2 μmol/L, 30 min.); control adenoviruse (Ad-CT, 200 MOI, 72 hrs), dominant negative PKCβ2 adenovirus (Adv-dnPKCβ2, 200 MOI, 72 hrs); μ-calpain siRNA (μ-calpsiRNA, Santa Cruz #sc-29885, 72 hrs), or MDL ([…], 48 hrs, Sigma #M6690). (FIG. 7D). Transfection effect of Adv-dnPKCβ2in HAECs. Cultured HAECs (passage 8, 80% confluence) were treated with 12.5, 25, 50, 100 and 200 MOI Adv-dnPKCβ2 for 48 hrs. n=3, *p<0.05 vs control; †p<0.05 vs DL-Hcy-treated HAECs; ‡p<0.05 vs D-Glu-treated HAECs; #p<0.05 vs DL-Hcy/D-Glu-treated HAECs. Cbs, cystathionine β-synthase; eNOS, endothelial nitric oxide synthase; eNOS-pThr495/497, phosphorylation of eNOS at threonine 497 (mouse)/495 (human).
Human aortic endothelial cells (HAECs) were cultured in cell culture medium (M199, HyClone) as previously described (Wang et al., 1997, J Biol Chem 272:25380-25385). The HAECs were treated with DL-Hcy (200 or 500 μmol/L) and/or D-glucose (D-Glu, 25 mmol/L) for 24 or 48 hrs in the presence or absence of selected pharmacological inhibitors or siRNA or adenovirus.

[5] = target: T1, eNOS (Homo sapiens, UniProt P29474); assay: eNOS activity in intact HAECs (3H-Arg to 3H-citrulline conversion); assay type: cell-based; details: HAECs; L-NAME 100 μmol/L added in the last hour
T1 construct: endogenous in cells; host or cells: HAECs (human aortic endothelial cells)
T1 sequence (P29474 2-1203 limits assumed): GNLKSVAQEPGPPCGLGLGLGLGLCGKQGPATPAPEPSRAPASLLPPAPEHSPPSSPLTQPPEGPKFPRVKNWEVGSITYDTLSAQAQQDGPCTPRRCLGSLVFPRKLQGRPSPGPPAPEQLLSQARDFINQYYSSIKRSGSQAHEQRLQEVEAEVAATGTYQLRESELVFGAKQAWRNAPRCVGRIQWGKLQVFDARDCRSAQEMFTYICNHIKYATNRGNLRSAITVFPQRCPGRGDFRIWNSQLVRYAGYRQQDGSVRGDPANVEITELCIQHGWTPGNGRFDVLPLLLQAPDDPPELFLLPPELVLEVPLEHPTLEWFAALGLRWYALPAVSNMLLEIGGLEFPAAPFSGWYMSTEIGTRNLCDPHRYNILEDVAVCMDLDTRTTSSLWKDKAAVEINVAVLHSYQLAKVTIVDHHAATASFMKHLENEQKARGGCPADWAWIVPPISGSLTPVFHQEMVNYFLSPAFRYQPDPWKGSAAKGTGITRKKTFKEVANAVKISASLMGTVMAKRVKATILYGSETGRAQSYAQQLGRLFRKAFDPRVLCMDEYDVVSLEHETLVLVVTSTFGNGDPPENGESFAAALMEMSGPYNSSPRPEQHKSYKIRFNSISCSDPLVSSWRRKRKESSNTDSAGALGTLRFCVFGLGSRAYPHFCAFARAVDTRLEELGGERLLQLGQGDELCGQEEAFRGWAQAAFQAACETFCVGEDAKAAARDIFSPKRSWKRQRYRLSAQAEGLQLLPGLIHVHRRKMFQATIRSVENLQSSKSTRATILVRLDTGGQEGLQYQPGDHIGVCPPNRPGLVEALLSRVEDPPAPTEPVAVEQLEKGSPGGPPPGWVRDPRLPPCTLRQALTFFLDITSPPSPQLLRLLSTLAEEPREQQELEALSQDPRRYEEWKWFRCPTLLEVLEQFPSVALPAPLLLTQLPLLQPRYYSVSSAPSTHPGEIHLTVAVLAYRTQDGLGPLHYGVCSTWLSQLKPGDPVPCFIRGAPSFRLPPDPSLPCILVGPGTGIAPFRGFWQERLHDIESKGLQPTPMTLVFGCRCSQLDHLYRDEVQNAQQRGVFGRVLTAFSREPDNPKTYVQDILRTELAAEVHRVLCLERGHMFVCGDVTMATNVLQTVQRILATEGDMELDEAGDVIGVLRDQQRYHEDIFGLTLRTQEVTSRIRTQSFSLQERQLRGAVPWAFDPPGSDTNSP
Protocol: (§1) (FIG. 6A). Images of NO. Nitric oxide (NO) production in HAECs was measured by staining intact HAECs with NO marker DAF-FM. N^G-nitro-L-arginine methyl ester (L-NAME, 100 μmol/L, Sigma #N5751) was added in the last hour as a negative control. (FIG. 6B). Quantification of NO. (FIG. 6C). eNOS activity. Human aortic endothelial cells (HAECs) were cultured in EC medium which contains 5 mmol/L D-Glucose (D-Glu), and treated with DL-homocysteine (DL-Hcy, 500 μmol/L) and/or (D-Glu, 25 mmol) without or with MDL28170 (MDL) for 48 hrs, CTsiRNA or μ-calpsiRNA for 72 hrs. L-NAME (100 μmol/L) was added in the last hour. NO was measured by staining intact HAECs with NO marker (DAF-FM, 10 μmol/L, Sigma #D2321, 30 mins.). Endothelial nitric oxide synthase (eNOS) activity was assessed by measuring of ^3H-L-arginine conversion to ^3H-citrulline in intact HAECs. n=3, *p<0.05 vs control; †p<0.05 vs DL-Hcy-treated HAECs; ‡p<0.05 vs D-Glu-treated HAECs; #p<0.05 vs DL-Hcy/D-Glu-treated HAECs. DAF-FM, 4-Amino-5-methylamino-2′,7′-difluorescein; CTsiRNA, control siRNA; HG, hyperglycemia; HHcy, hyperhomocysteinemia; μ-calpsiRNA, μ-calpain siRNA.
(§2) HAECs treated with or without DL-Hcy and/or D-Glu for 48 hrs were stained with 4-Amino-5-Methylamino-2′,7′-Difluorofluorescein (DAF-FM). To explore the role of calpain, especially μ-calpain, the DL-Hcy/D-Glu-treated HAECs were also treated with MDL28170 (MDL, 20 μmol/L) and μ-calpain siRNA, respectively. HAECs treated with L-NAME (100 μmol/L) for 1 hr before DAF-FM staining were used as negative controls. eNOS activity in HAECs was determined by measuring the conversion of ^3H-Arg to ^3H-citrulline in intact cells as previous described (Jiang et al., 2005, Arterioscl Throm Vas 25:2515-2521).

[6] = test system: NO production in HAECs; assay: NO production in HAECs by DAF-FM staining; assay type: cell-based, human; details: HAECs; L-NAME 100 μmol/L added in the last hour (negative control)
Protocol: as §1, §2

[7] = test system: calpain; assay: t-BOC calpain activity assay in intact HAECs; assay type: cell-based, human; details: HAECs treated with DL-Hcy 500 μmol/L and D-Glu 25 mmol/L; PEG-SOD 150 U/mL, 48 hrs
Protocol: (FIG. 5A). In situ .O2^− production in aorta. (FIG. 5B). Nitrotyrosine (3-NT) levels. Aortic paraffin-cross sections (7 μm) from Cbs^−/+ mice were stained with 3-NT antibody and 3,3′-diaminobenzidine (DAB, brown). (FIG. 5C). Urinary 8-isoprostane levels. At the age of 8-week, Cbs^+/+ and Cbs^−/+ mice were fed with a high methionine diet (HM, methionine: 2% w/w) for 8 weeks, and/or injected with streptozotocin (STZ, i.p., 40 mg/kg) for 5 consecutive days starting from the first day of experiment. Mice fed with a control diet (CT, methionine: 0.37% w/w) and injected with vehicle (50 mM citrate buffer) served as controls. Aortic cryo-cross sections (30 μm) from Cbs^−/+ mice were stained with the superoxide marker dihydroethidium (DHE, 3 μmol/L, 30 mins.). Urine was collected from 24 hrs metabolic cage. (FIG. 5D). Endothelium-dependent vascular relaxation in HHcy/HG CBS^−/+ mouse aorta in the presence of antioxidants. Arterial rings were pre-contracted with phenylephrine (1 μmol/L) and examined for relaxation to cumulative additions of ACh in the aorta of STZ-treated Cbs^−/+ mice on HM diet. The arterial rings were preincubated with antioxidants polyethylene glycol superoxide dismutase (PEG-SOD, 150 U/mL, Sigma #S9549), Tempol (1 mmol/L, Sigma #176141), or apocynin (10 μmol/L, Sigma #W508454) for 1 hr. n=3-5. *p<0.05 vs vehicle-treated Cbs^−/+ mice on CT diet; †p<0.05 vs vehicle-treated Cbs^−/+ mice on HM diet; ‡p<0.05 vs STZ-treated Cbs^−/+ mice on CT diet; #p<0.05 vs STZ-treated Cbs^−/+ mice on HM diet. (FIG. 5E). […] Calpain activity was measured by the fluorescent substrate t-BOC-Leu-Met-CMAC (T-BOC, 10 μmol/L, 30 min) Human aortic endothelial cells (HAECs, passage 8-9) were cultured in EC medium which contains 5 mmol/L D-glucose (D-Glu), treated with DL-homocysteine (DL-Hcy, 500 μmol/L) and/or D-Glu (25 mmol/L) with or without […] (150 U/mL) or MDL28170 (MDL, 20 μmol/L) for 48 hrs, or CTsiRNA and μ-calpsiRNA for 72 hrs. […] Transfection effect of μ-calpsiRNA in HAECs was detected by Western blot after transfected with the siRNA for indicated time. […]

For CSCC[C@@H](C=O)NC(=O)[C@H](CC(C)C)NC(=O)[C@H](CC(C)C)NC(C)=O [ALLM, N-Acetyl-Leu-Leu-Met-CHO] (Ac-Leu-Leu-Met-aldehyde), the “aortic endothelium-dependent vascular relaxation to ACh” value [1] was “markedly improved”.

For CN(C)CCCn1cc(C2=C(c3c[nH]c4ccccc34)C(=O)NC2=O)c2ccccc21 [BIM-1], the calpain activity [2] is listed as “decreased”.

In the case of Nc1nc2ncc(CNc3ccc(C(=O)N[C@@H](CCC(=O)O)C(=O)O)cc3)nc2c(=O)[nH]1 [Folic acid], the “endothelium-dependent vascular relaxation responses to ACh” value [3] is listed as “improved”.

For CN(C)CCCn1cc(C2=C(c3c[nH]c4ccccc34)C(=O)NC2=O)c2ccccc21 [GFX, GF109203X], the “HHcy/HG-induced eNOS-pThr495” value [4] was “completely rescued”.

For COC(=O)[C@@H](N)CCCNC(=N)N[N+](=O)[O-] [L-NAME, N^G-nitro-L-arginine methyl ester], the “vascular relaxation response to ACh” value ([1]; aorta of all groups (Cbs+/+ and Cbs−/+, HHcy and/or HG), L-NAME 100 μmol/L, 30 min) was “completely abolished”, the eNOS activity [5] was 10% and the NO generation [6] was 5.7%.

In the case of CC1(C)CC(O)CC(C)(C)N1[O] [Tempol], the “endothelium-dependent vascular relaxation to ACh” value [1] is reported as “significantly improved”.

In the case of COc1cc(C(C)=O)ccc1O [apocynin], the “endothelium-dependent vascular relaxation to ACh” value [1] is reported as “significantly improved”.

With CCCC[C@@H](C=O)NC(=O)[C@H](CC(C)C)NC(=O)OCc1ccccc1 [calpeptin] the “aortic endothelium-dependent vascular relaxation to ACh” value [1] was “markedly improved”.

With “polyethylene glycol superoxide dismutase [PEG-SOD]” the “decrease of HHcy/HG-induced calpain activation” value [7] was 49% and the “endothelium-dependent vascular relaxation to ACh” value [1] was “significantly improved”.
